From the OligoGym collection come the findings set out here.

“And” between values parts separate entries of the source, which are not always exact repeats. Identical values can stand only once. After the bases stand the sugars from the 5' end (letter, count) and the backbone: PS all phosphorothioate, else s phosphorothioate and o phosphodiester by linkage. Methylation of C is not given here. e = 2'-O-(2-methoxyethyl) (MOE); k = constrained ethyl (cEt); d = 2'-deoxy (DNA)

For one data set, the target named is MALAT1. The following applies: ASO, A431, 0.005 µM.
For GCTCATCACTTTATGA (sugars k3 d10 k3, PS), the target mRNA inhibition stood at 10%.

Consider TCTTAATCAGTTACAA (sugars k3 d10 k3, PS), for which the target mRNA inhibition is 9%.

For AGGCAAATTAATGGCC (sugars k3 d10 k3, PS), the target mRNA inhibition is 8%.

Regarding GGAAATTTTTCTACCG (sugars k3 d10 k3, PS), the target mRNA inhibition worked out at 8%.

As for AGAGGGAGTTGAGGCA (sugars k3 d10 k3, PS), the target mRNA inhibition was 40%.

Consider CTCCGTGTGGTTGCCA (sugars k3 d10 k3, PS), for which the target mRNA inhibition turned out to be 24%.

For the sequence ACGAAAGTCCTTCACA (sugars k3 d10 k3, PS), the target mRNA inhibition came out at 11%.

Regarding TGACAAGCAATTAACT (sugars k3 d10 k3, PS), the target mRNA inhibition amounted to 28%.

In the case of AACTAGCACCTGCAGA (sugars k3 d10 k3, PS), the target mRNA inhibition amounted to 17%.

With CCAACCCCCAGTTCAA (sugars k3 d10 k3, PS), the target mRNA inhibition came out at 24%.

In the case of GAAAAGTGGTTGCCCG (sugars k3 d10 k3, PS), the target mRNA inhibition stood at 32%.

On to TAGAATCTTACTTGAT (sugars k3 d10 k3, PS), for which the target mRNA inhibition amounted to 34%.

With GGCCATCATACTGCCA (sugars k3 d10 k3, PS), the target mRNA inhibition was -19%.

As to CAAGGATCCAAGCTAC (sugars k3 d10 k3, PS), the target mRNA inhibition came out at 19%.

TTACACTGCTCTGGGT (sugars k3 d10 k3, PS): the target mRNA inhibition was determined as 2%.

On to CCGCCTTTGTGAGGGA (sugars k3 d10 k3, PS), for which the target mRNA inhibition was 14%.

Consider AAGCCCACCCTCTAAG (sugars k3 d10 k3, PS), for which the target mRNA inhibition turned out to be 21%.

Take GGACAGTAGGTATAGT (sugars k3 d10 k3, PS): the target mRNA inhibition is 11%.

Turning to ATTTAACTTCCCCCAG (sugars k3 d10 k3, PS), the target mRNA inhibition worked out at 18%.

TATAGCATCTGTGGAA (sugars k3 d10 k3, PS): the target mRNA inhibition amounted to 20%.

A further data set has as its target IRF4. The settings on record: ASO, MM.1R, 0.074 µM.
Consider “GTTGTAAATGAGTCGG (sugars kkdddddddddkdkdk, PS)”, for which the target mRNA inhibition was 34%.

Turning to “GAAGTTTACACTGGAT (sugars kkdddddddddkekek, PS)”, the target mRNA inhibition worked out at 6%.

Consider TATCATGCATACCAAA (sugars k3 d10 k3, PS), for which the target mRNA inhibition is -4%.

Staying with this data set, now noted: ASO, MM.1R, 0.222 µM.
Regarding “GTTGTAAATGAGTCGG (sugars kkdddddddddkdkdk, PS)”, the target mRNA inhibition worked out at 45%.

For the sequence “GAAGTTTACACTGGAT (sugars kkdddddddddkekek, PS)”, the target mRNA inhibition was determined as 22%.

Consider TATCATGCATACCAAA (sugars k3 d10 k3, PS), for which the target mRNA inhibition is -7%.

The same data set, now with this note: ASO, MM.1R, 0.666 µM.
With “GTTGTAAATGAGTCGG (sugars kkdddddddddkdkdk, PS)”, the target mRNA inhibition is 64%.

On to “GAAGTTTACACTGGAT (sugars kkdddddddddkekek, PS)”, for which the target mRNA inhibition is 49%.

As for TATCATGCATACCAAA (sugars k3 d10 k3, PS), the target mRNA inhibition is 3%.

Staying with this data set, now noted: ASO, MM.1R, 1 µM.
As to TTTCAACTTGTGACCC (sugars k3 d10 k3, PS), the target mRNA inhibition was found to be 1%.

For ATGTGATAGCTGAGCT (sugars k3 d10 k3, PS), the target mRNA inhibition was 26%.

With “GTTGTAAATGAGTCGG (sugars kkdddddddddkdkdk, PS)”, the target mRNA inhibition amounted to 58%.

Regarding TGCCATGGACAAGTTT (sugars k3 d10 k3, PS), the target mRNA inhibition is -18%.

Turning to “TGATAGCTGAGCTGAT (sugars kdddddddddkekeke, PS)”, the target mRNA inhibition stood at 17%.

“GAAGTTTACACTGGAT (sugars kkdddddddddkekek, PS)”: the target mRNA inhibition was 55%.

Take “GAAGCATTTTATCATC (sugars kkkdddddddddkeke, PS)”: the target mRNA inhibition amounted to 8%.

Consider “AAGCAGTGATGTCAGG (sugars kdddddddddkekeke, PS)”, for which the target mRNA inhibition was 34% and 35%.

As to “TGCTTGAGGTTTTCCT (sugars kkkddddddddkekek, PS)”, the target mRNA inhibition came out at 27%.

Take “GGGATTATATACTGGT (sugars kddddddddddkekek, PS)”: the target mRNA inhibition came to 34%.

For “CAAGTGTCTAAAGTCC (sugars kkdddddddddekeke, PS)”, the target mRNA inhibition is 23% and 25%.

In the case of GTGACCCACATAACTC (sugars k3 d10 k3, PS), the target mRNA inhibition was found to be 7%.

In the case of AATATAACGGTGTTTC (sugars k3 d10 k3, PS), the target mRNA inhibition worked out at 8%.

Take CTGAAACGGTCAGCAG (sugars k3 d10 k3, PS): the target mRNA inhibition came out at 3%.

Still in this data set, the particulars now being: ASO, MM.1R, 2 µM.
“GTTGTAAATGAGTCGG (sugars kkdddddddddkdkdk, PS)”: the target mRNA inhibition turned out to be 85%.

For “GAAGTTTACACTGGAT (sugars kkdddddddddkekek, PS)”, the target mRNA inhibition amounted to 75%.

TATCATGCATACCAAA (sugars k3 d10 k3, PS): the target mRNA inhibition amounted to 14%.

Still in this data set, the particulars now being: ASO, SK-MEL-28, 4 µM.
TCACGAGGTTGCCGAG (sugars k3 d10 k3, PS): the target mRNA inhibition is 62%.

Turning to AGTTAAGGTGCCTCAA (sugars k3 d10 k3, PS), the target mRNA inhibition is -1%.

In the case of GTACTTGCCGCTGTCG (sugars k4 d8 k4, PS), the target mRNA inhibition turned out to be 36%.

Regarding CATTGGTACGGGATTT (sugars k3 d10 k3, PS), the target mRNA inhibition is 16%.

Take AGCTAACTTACAGGAC (sugars k3 d10 k3, PS): the target mRNA inhibition is -4%.

As to TCTCAGCAAAACGCAG (sugars k3 d10 k3, PS), the target mRNA inhibition was determined as 27%.

Regarding GCACACACAAGTGGCC (sugars k3 d10 k3, PS), the target mRNA inhibition worked out at 64%.

With CATTTTATCATCCGAA (sugars k3 d10 k3, PS), the target mRNA inhibition turned out to be 55%.

For the sequence GTGAAACTGAGAGTGC (sugars k3 d10 k3, PS), the target mRNA inhibition is -20%.

For the sequence ACAGGACCTGGTCCAG (sugars k4 d8 k4, PS), the target mRNA inhibition was 7%.

For TATCATGCATACCAAA (sugars k3 d10 k3, PS), the target mRNA inhibition was found to be 58%.

AGTTCATGTAAAGTCT (sugars k3 d10 k3, PS): the target mRNA inhibition is 56% and 61%.

On to TAGGTGCTTGTTGAAT (sugars k3 d10 k3, PS), for which the target mRNA inhibition amounted to 50%.

Consider ATCTTCACTGTTAGCT (sugars k3 d10 k3, PS), for which the target mRNA inhibition stood at 74%.

Take ACGAAACACAGTCTGC (sugars k3 d10 k3, PS): the target mRNA inhibition is 52%.

With CTGCACTCGCCCTGGA (sugars k3 d10 k3, PS), the target mRNA inhibition stood at 42%.

In the case of TGCGAGTACCCAAGAC (sugars k3 d10 k3, PS), the target mRNA inhibition is 59%.

As to CAAAACGGACTGGAAC (sugars k3 d10 k3, PS), the target mRNA inhibition was determined as 16%.

Regarding ACGAAAACAGCCGCCG (sugars k3 d10 k3, PS), the target mRNA inhibition amounted to 14%.

On to GAGCTGCTTGGCTCCT (sugars k3 d10 k3, PS), for which the target mRNA inhibition worked out at 19%.

Turning to CTTTAGCCCATGCTCC (sugars k3 d10 k3, PS), the target mRNA inhibition turned out to be 20%.

For the sequence CTGATCGCTGGACAGC (sugars k3 d10 k3, PS), the target mRNA inhibition came to 20%.

Turning to ACTTAAAATCCACACC (sugars k3 d10 k3, PS), the target mRNA inhibition stood at 7%.

Consider TGCAAACGACAAGTGG (sugars k3 d10 k3, PS), for which the target mRNA inhibition turned out to be 21%.

Regarding CTCACACACAGGATGT (sugars k3 d10 k3, PS), the target mRNA inhibition amounted to 18%.

On to CAGGACCCGGCTCCCG (sugars k3 d10 k3, PS), for which the target mRNA inhibition turned out to be 14%.

In the case of CCCGAGGCCGGAGACC (sugars k3 d10 k3, PS), the target mRNA inhibition amounted to 6%.

On to TAGGAAGTTTACTAAC (sugars k3 d10 k3, PS), for which the target mRNA inhibition amounted to 36%.

Regarding CAGTCAAAGATTCATT (sugars k3 d10 k3, PS), the target mRNA inhibition came to 40%.

Take GTAACAACGACACACG (sugars k3 d10 k3, PS): the target mRNA inhibition was determined as 59%.

Turning to GTCTACATCTACTCCA (sugars k3 d10 k3, PS), the target mRNA inhibition was determined as 38%.
